Assay results from publication PMC10512030, “Prolidase-proline oxidase axis is engaged in apoptosis induction by birch buds flavonol santin in endometrial adenocarcinoma cell line” (Frontiers in Molecular Biosciences, 2023).
Where two headings read alike, the source gives them in different places.

Columns and labels:
[1] = tested on: normal fibroblasts (dermal fibroblasts CCD25Sk); assay: Cell viability MTT assay, fibroblasts; assay type: cell-based, human; conditions: for IC50: Fibroblasts, read-out: IC50 values ± SD in MTT assay
[2] = tested on: normal fibroblasts (dermal fibroblasts CCD25Sk); assay: Cell viability neutral red uptake assay, fibroblasts; assay type: cell-based, human; conditions: read-out: IC50 values ± SD in neutral red uptake assay
[3] = tested on: cervical adenocarcinoma HeLa cells; assay: Cell viability MTT assay, HeLa; assay type: cell-based, human
[4] = tested on: endometrial adenocarcinoma Ishikawa cells; assay: Cell viability MTT assay, Ishikawa; assay type: cell-based, human; conditions: read-out: IC50 values ± SD in MTT assay
[5] = tested on: endometrial adenocarcinoma Ishikawa cells; assay: Cell viability neutral red uptake assay, Ishikawa; assay type: cell-based, human; conditions: read-out: IC50 values ± SD in neutral red uptake assay
[6] = tested on: cervical adenocarcinoma HeLa cells; assay: Cell viability neutral red uptake assay, HeLa; assay type: cell-based, human; conditions: read-out: IC50 values ± SD in neutral red uptake assay
[7] = tested on: breast epithelial cells MCF 10A; assay: Cell viability MTT assay, MCF 10A; assay type: cell-based, human; conditions: 48 h
[8] = tested on: cervical adenocarcinoma HeLa cells; conditions: cited from earlier work; for IC50: HeLa, ref Souza et al., 2017, read-out: IC50 determined by MTT assay
[9] = Homo sapiens, HeLa, 24 h, HeLa, 24 h, read-out: IC50 values ± SD in MTT assay
[10] = Homo sapiens, HeLa, 48 h, HeLa, 48 h, read-out: IC50 values ± SD in MTT assay
[11] = HeLa, 24 h, read-out: IC50 values ± SD in MTT assay
[12] = HeLa, 48 h, read-out: IC50 values ± SD in MTT assay

Row | Compound | IC50 ([1]; Homo sapiens, Fibroblast, 24 h) | IC50 ([1]; Homo sapiens, Fibroblast, 48 h) | IC50 ([2]; Homo sapiens, Fibroblast, 24 h) | IC50 ([2]; Homo sapiens, Fibroblast, 48 h) | IC50 [3, 9] | IC50 [3, 10] | IC50 ([4]; Homo sapiens, 24 h) | IC50 ([4]; Homo sapiens, 48 h) | IC50 ([5]; Homo sapiens, 24 h) | IC50 ([5]; Homo sapiens, 48 h) | IC50 ([6]; Homo sapiens, 24 h) | IC50 ([6]; Homo sapiens, 48 h) | IC50 ([4]; 24 h) | also measured
1 | COc1cc(O)c2c(c1)O[C@H](c1ccc(O)cc1)CC2=O [sakuranetin] | > 50 µM | > 50 µM | > 50 µM | > 50 µM | > 50 µM | > 50 µM | > 50 µM | > 50 µM | > 50 µM | > 50 µM | > 50 µM | > 50 µM | – | IC50 ([3]; Homo sapiens, HeLa, cancer cells (HeLa and Ishikawa), MTT and neutral red uptake assays, 24 and 48 h, read-out: IC50, viability of cancer cells): > 50 µM
2 | O=c1c(O)c(-c2ccc(O)cc2)oc2cc(O)cc(O)c12 [kaempferol] | > 50 µM | > 50 µM | > 50 µM | > 50 µM | > 50 µM | > 50 µM | > 50 µM | > 50 µM | > 50 µM | > 50 µM | > 50 µM | 38.3 ± 2.5 µM | – | –
3 | N.N.[Cl][Pt][Cl] [cisplatin, reference compound] | – | – | – | – | – | – | – | – | – | – | – | – | > 50 µM | IC50 ([1]; 24 h): > 50 µM; IC50 ([1]; 48 h): 40.5 ± 4.3 µM; IC50 ([2]; 24 h): > 50 µM; IC50 ([2]; 48 h): 43.1 ± 3.5 µM; IC50 [3, 11]: 30 ± 2.7 µM; IC50 [3, 12]: 9.4 ± 1.3 µM; IC50 [7]: 17.8 ± 2.3 µM; IC50 ([4]; 24 h, listed as Cisplatin): > 50 µM; IC50 ([4]; 48 h): 12 ± 2 µM; IC50 ([5]; 24 h): 28.1 ± 2 µM; IC50 ([5]; 48 h): 11.7 ± 2.2 µM; IC50 ([6]; 24 h): 20 ± 2.7 µM; IC50 ([6]; 48 h): 9.7 ± 2.3 µM
4 | O=c1c(O)c(-c2ccc(O)c(O)c2)oc2cc(O)cc(O)c12 [quercetin] | > 50 µM | > 50 µM | > 50 µM | > 50 µM | > 50 µM | > 50 µM | > 50 µM | 45.4 ± 4.1 µM | > 50 µM | 42.9 ± 3.8 µM | 39.1 ± 3.2 µM | 36.9 ± 2 µM | – | –
5 | COc1cc(O)c2c(=O)c(OC)c(-c3ccc(O)cc3)oc2c1 [kumatakenin] | 47 ± 5.6 µM | 42.9 ± 4.3 µM | 35.7 ± 2.5 µM | 15.3 ± 2.3 µM | > 50 µM | > 50 µM | 30.5 ± 2 µM | 24.2 ± 1.8 µM | > 50 µM | > 50 µM | > 50 µM | > 50 µM | – | effect on viability of fibroblasts ([1]; fibroblasts, MTT and neutral red uptake assays, 24 and 48 h): significantly decreased viability
6 | O=c1cc(-c2ccc(O)c(O)c2)oc2cc(O)cc(O)c12 [luteolin, reference compound] | > 50 µM | > 50 µM | > 50 µM | > 50 µM | 42.8 ± 3.6 µM | – | > 50 µM | 25.9 ± 2.5 µM | > 50 µM | 31.6 ± 2.9 µM | 31.5 ± 2.5 µM | ~28 µM | – | IC50 ([7]; Homo sapiens): 8.4 ± 1.5 µM; reduction in HeLa cell viability ([8]; 20 μM luteolin, MTT assay, 48 h time point, ref Raina et al., 2021): about 50%
7 | COc1ccc(-c2cc(=O)c3c(O)cc(OC)cc3o2)cc1 [apigenin 7,4′-O-dimethyl ether] | – | – | – | – | – | – | – | – | – | – | – | – | 26.2 ± 1.9 µM | effect on viability of fibroblasts [1]: significantly decreased viability; IC50 ([1]; 24 h): 18 ± 3.9 µM; IC50 ([1]; 48 h): 10.9 ± 4.6 µM; IC50 ([2]; 24 h): 27.6 ± 2.8 µM; IC50 ([2]; 48 h): 7.6 ± 1.1 µM; IC50 [3, 11]: > 50 µM; IC50 [3, 12]: > 50 µM; IC50 ([4]; 48 h): 20.9 ± 1.4 µM; IC50 ([5]; 24 h): > 50 µM; IC50 ([5]; 48 h): > 50 µM; IC50 ([6]; 24 h): > 50 µM; IC50 ([6]; 48 h): > 50 µM
8 | COc1ccc(C2CC(=O)c3c(O)cc(OC)cc3O2)cc1 (centres unmarked) [naringenin 7,4′-O-dimethyl ether] | – | – | – | – | – | – | – | – | – | – | – | – | > 50 µM | IC50 ([1]; 24 h): > 50 µM; IC50 ([1]; 48 h): > 50 µM; IC50 ([2]; 24 h): > 50 µM; IC50 ([2]; 48 h): > 50 µM; IC50 [3, 11]: > 50 µM; IC50 [3, 12]: > 50 µM; IC50 ([3]; cancer cells (HeLa and Ishikawa), MTT and neutral red uptake assays, 24 and 48 h, read-out: IC50, viability of cancer cells): > 50 µM; IC50 ([4]; 48 h): > 50 µM; IC50 ([5]; 24 h): > 50 µM; IC50 ([5]; 48 h): > 50 µM; IC50 ([6]; 24 h): > 50 µM; IC50 ([6]; 48 h): > 50 µM
9 | O=c1cc(-c2ccc(O)cc2)oc2cc(O)cc(O)c12 [apigenin, reference compound] | > 50 µM | > 50 µM | > 50 µM | 48.6 ± 3.1 µM | ~30 µM | ~17.9 µM | > 50 µM | 33.1 ± 2.2 µM | > 50 µM | 38 ± 2.1 µM | ~27 µM | ~14.2 µM | – | IC50 ([7]; Homo sapiens): 14.5 ± 1.8 µM; IC50 ([8]; 24 h): ~38 µM; IC50 ([8]; 48 h): ~10 µM
10 | COc1ccc(-c2oc3cc(O)cc(O)c3c(=O)c2OC)cc1 [ermanin] | > 50 µM | > 50 µM | > 50 µM | > 50 µM | > 50 µM | 31.8 ± 2.4 µM | > 50 µM | > 50 µM | > 50 µM | 46.7 ± 3.2 µM | 39 ± 2.9 µM | 33.2 ± 1.9 µM | – | –
11 | COc1cc2oc(-c3ccc(O)cc3)cc(=O)c2c(O)c1OC [cirsimaritin] | > 50 µM | > 50 µM | > 50 µM | > 50 µM | 36.6 ± 2.2 µM | 16 ± 1.9 µM | > 50 µM | 19.6 ± 2.6 µM | 34.2 ± 2.7 µM | 26.1 ± 2.1 µM | 17.5 ± 2.4 µM | 13.9 ± 1.4 µM | > 50 µM | –
